Data taken from US20260022114A1, “N-(5-SUBSTITUTED-[(1,3,4-THIADIAZOLYL) OR (1,3-THIAZOLYL)](SUBSTITUTED)CARBOXAMIDE COMPOUNDS, PHARMACEUTICAL COMPOSITIONS, AND METHODS OF PREPARING THE AMIDE COMPOUNDS AND OF THEIR USE” (Repare Therapeutics Inc., priority 2022, published 2026).

Biological target: PolQ ATPase enzyme (1-894) (Homo sapiens (Human), UniProt O75417)
Assay: Polθ ATPase enzymatic assay (0.5 nM enzyme concentration), ADP-Glo
Format: biochemical
Conditions: 0.5 nM PolQ ATPase enzyme (1-894); average IC50
Protocol: PolQ ATPase enzyme (1-894) at 0.5 nM is incubated with a 10-point concentration response of inhibitors for 15 min at rt in the following buffer: 50 mM Tris Cl pH 7.5, 10% glycerol, 5 mM DTT, 10 mM MgCl2, 0.1 mg/ml BSA. Following pre-incubation with inhibitors, DNA (Fork C) at 20 nM and ATP at 100 μM are added to start the reaction. Enzymatic reaction proceeds at rt for 180 min. ATP consumption is measured using the ADP-Glo assay from Promega. Luminescence is read on the Envision and IC50 are determined using the variable slope 4-parameters equation.
Oligos are annealed by heating at 95° C. for 5 min in the following buffer (10 mM Tris-HCl PH7.5, 50 mM NaCl, 1 mM EDTA) and cooled to rt. […]

PolQ ATPase enzyme (1-894), sequence (O75417 1-894): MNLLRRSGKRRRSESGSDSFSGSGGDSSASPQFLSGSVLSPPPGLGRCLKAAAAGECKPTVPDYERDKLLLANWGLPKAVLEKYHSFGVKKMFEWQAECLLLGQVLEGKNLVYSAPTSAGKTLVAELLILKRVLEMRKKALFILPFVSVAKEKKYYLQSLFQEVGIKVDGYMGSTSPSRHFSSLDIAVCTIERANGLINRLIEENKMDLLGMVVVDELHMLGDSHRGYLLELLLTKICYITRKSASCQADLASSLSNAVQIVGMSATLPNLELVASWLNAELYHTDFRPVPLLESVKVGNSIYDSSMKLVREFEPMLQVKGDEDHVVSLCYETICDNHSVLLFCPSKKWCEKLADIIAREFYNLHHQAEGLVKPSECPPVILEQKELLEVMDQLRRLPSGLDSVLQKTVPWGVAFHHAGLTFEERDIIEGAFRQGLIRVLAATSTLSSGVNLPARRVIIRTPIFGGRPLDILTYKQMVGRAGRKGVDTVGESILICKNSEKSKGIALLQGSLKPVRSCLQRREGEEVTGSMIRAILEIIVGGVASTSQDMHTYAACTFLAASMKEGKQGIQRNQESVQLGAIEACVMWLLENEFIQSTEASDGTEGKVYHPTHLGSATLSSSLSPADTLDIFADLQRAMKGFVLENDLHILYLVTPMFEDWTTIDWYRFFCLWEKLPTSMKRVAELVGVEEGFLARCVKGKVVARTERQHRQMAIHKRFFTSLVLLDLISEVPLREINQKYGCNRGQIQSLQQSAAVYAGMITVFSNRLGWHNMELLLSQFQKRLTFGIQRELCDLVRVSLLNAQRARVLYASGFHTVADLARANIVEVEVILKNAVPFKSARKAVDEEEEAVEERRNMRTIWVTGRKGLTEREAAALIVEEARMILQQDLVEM

`COc1cnc(C(F)F)cc1-c1cc(-n2ccc(C3CCOCC3)cc2=O)ncc1C(=O)Nc1nnc(C#CC2CC2)s1` [Compound 506] and `COc1cnc(C(F)F)cc1-c1cc(-n2ccc(C)cc2=O)ncc1C(=O)Nc1nnc(C#CC2CCOCC2)s1` [Compound 487] cannot be ordered by IC50: under 0.25 nM for the first, under 0.25 nM for the second.

First: COc1cnc(C(F)F)cc1-c1cc(-n2ccc(C)cc2=O)ncc1C(=O)Nc1nnc([C@H]2C[C@@H]2C#N)s1 (racemic) [Compound 539]
Second: C#C[C@@H]1CC1c1nnc(NC(=O)c2cnc(-n3ccc(C)cc3=O)cc2-c2cc(C(F)F)ncc2OC)s1 (single isomer, unassigned) [Compound 480]
The IC50 of the first is 20-fold higher: 33.3 nM for the first, 1.7 nM for the second.

Compared with `COc1cnc(C(F)F)cc1-c1cc(-c2cccn(C)c2=O)ncc1C(=O)Nc1nnc(C#CC2CC2)s1` [Compound 483], `COc1cnc(C(F)F)cc1-c1cc(-c2ccc(C)cc2)ncc1C(=O)Nc1nnc(C#CC2CC2)s1` [Compound 513] is higher in IC50: under 0.25 nM for the first, 3.2 nM for the second. The first is the more potent here.

`COc1cnc(Cl)cc1-c1cnccc1C(=O)Nc1nnc(C2C[C@H]2c2ccc(C#N)c(C)c2)s1` (stereo partly shown) [Compound 287] and `COc1cnc(C(F)(F)F)cc1-c1cnccc1C(=O)Nc1nnc(C2C[C@H]2c2ccc(C#N)cc2)s1` (stereo partly shown) [Compound 90] are within 1.5-fold of each other in IC50: 0.93 nM for the first, 0.8 nM for the second.

First: C#C[C@H]1C[C@H](c2nnc(NC(=O)c3cnc(-n4ccc(C)cc4=O)cc3-c3cc(C(F)F)ncc3OC)s2)C1 [Compound 595]
Second: COc1cnc(C(F)F)cc1-c1cc(-n2ccc(C)cc2=O)ncc1C(=O)Nc1nnc([C@H]2C[C@@H]2F)s1 [Compound 544]
The IC50 of the first is 1.5-fold higher: 2.9 nM for the first, 1.9 nM for the second.

`COc1cnc(C(F)F)cc1-c1cc(-n2ccc(C)cc2=O)ncc1C(=O)Nc1nnc(C2C[C@@H]2c2cscn2)s1` (mixture of isomers) [Compound 635] and `COc1cnc(C(F)F)cc1-c1cc(-n2ccc(C)cc2=O)ncc1C(=O)Nc1nnc([C@H]2C[C@@H]2c2cncs2)s1` (racemic) [Compound 579] are within 1.5-fold of each other in IC50: 0.25 nM for the first, 0.33 nM for the second.

`COc1cnc(C(F)F)cc1-c1cc(C#CC(C)(C)N2CCOCC2)ncc1C(=O)Nc1nnc(C#CC2CC2)s1` [Compound 528] and `COc1cnc(C(F)F)cc1-c1cc(C#CC(C)(C)N2CCCCC2)ncc1C(=O)Nc1nnc(C#CC2CC2)s1` [Compound 553] are within 1.5-fold of each other in IC50: 0.44 nM for the first, 0.5 nM for the second.

`C#C[C@H]1C[C@@H]1c1nnc(NC(=O)c2cnc(-n3ccc(Cl)cc3=O)cc2-c2cc(C(F)F)ncc2OC)s1` [Compound 624] and `C#C[C@H]1C[C@@H]1c1nnc(NC(=O)c2cnc(-n3ccc(N4CCN(C)CC4)cc3=O)cc2-c2cc(C(F)F)ncc2OC)s1` [Compound 548] are within 1.5-fold of each other in IC50: 1.1 nM for the first, 0.79 nM for the second.

Compared with `COc1cnc(C(F)F)cc1-c1cc(N2CCN(C=O)C3(CC3)C2=O)ncc1C(=O)Nc1nnc(C#CC2CC2)s1` [Compound 520], `COc1cnc(C(F)F)cc1-c1cc(N2CC3CC(C3)C2=O)ncc1C(=O)Nc1nnc(C#CC2CC2)s1` (racemic) [Compound 381] is lower in IC50: 0.27 nM for the first, under 0.25 nM for the second. The second is the more potent here.

First: COc1cnc(C(F)F)cc1-c1cc(C#CCN2CCOCC2)ncc1C(=O)Nc1nnc([C@H]2C[C@@H]2C)s1 (racemic) [Compound 606]
Second: COc1cnc(C(F)F)cc1-c1cc(C#CCN2CCOCC2)ncc1C(=O)Nc1nnc([C@H]2C[C@@H]2c2cscn2)s1 (racemic) [Compound 634, 2′-(difluoromethyl)-5′-methoxy-6-(3-morpholinoprop-1-yn-1-yl)-N-(5-((1S,2S)-2-(thiazol-4-yl)cyclopropyl)-1,3,4-thiadiazol-2-yl)-[4,4′-bipyridine]-3-carboxamide]
The IC50 of the first is 4.7-fold higher: 4 nM for the first, 0.86 nM for the second.

`COc1cnc(C(F)F)cc1-c1cc(C#CCN2CCNC2=O)ncc1C(=O)Nc1nnc(C#CC2CC2)s1` [Compound 559] and `COc1cnc(C(F)F)cc1-c1cc(C#CCN2CCCC2=O)ncc1C(=O)Nc1nnc(C#CC2CC2)s1` [Compound 550] cannot be ordered by IC50: under 0.25 nM for the first, under 0.25 nM for the second.

First: COc1cnc(C(F)F)cc1-c1cc(C#CC(C)(C)N2CC(C)(C)C2)ncc1C(=O)Nc1nnc(C#CC2CC2)s1 [Compound 560]
Second: COc1cnc(C(F)F)cc1-c1cc(C#CCN(C)C)ncc1C(=O)Nc1nnc(C#CC2CC2)s1 [Compound 628]
The IC50 of the first is higher: 1.15 nM for the first, under 0.25 nM for the second.

Going from `COc1cnc(C(F)F)cc1-c1cc(Oc2cc(N3CCOCC3)ccn2)ncc1C(=O)Nc1nnc(C#CC2CC2)s1` [Compound 526] to `COc1cnc(C(F)F)cc1-c1cc(-n2ccc(N3CCOCC3)cc2=O)ncc1C(=O)Nc1nnc(C#CC2CC2)s1` [Compound 522], the IC50 falls from 1.5 nM to under 0.25 nM.

Compared with `COc1cnc(C(F)F)cc1-c1cc(N(C)c2nnc(C)o2)ccc1C(=O)Nc1nnc(C#CC2CC2)s1` [Compound 118, N-(5-(cyclopropylethynyl)-1,3,4-thiadiazol-2-yl)-2-(2-(difluoromethyl)-5-methoxypyridin-4-yl)-4-(methyl (5-methyl-1,3,4-oxadiazol-2-yl)amino)benzamide], `COc1cnc(C(F)F)cc1-c1cc(C2C[C@H]2C(=O)N(C)C)ccc1C(=O)Nc1nnc(C#CC2CC2)s1` (mixture of isomers) [Compound 363] is lower in IC50: 0.99 nM for the first, under 0.25 nM for the second. The second is the more potent here.

Compared with `COc1cnc(C(F)F)cc1-c1cc(C#CCN2CCN(C)CC2)ncc1C(=O)Nc1nnc(C#CC2CC2)s1` [Compound 540], `COc1cnc(C(F)F)cc1-c1cc(C#CCN2CCCC2)ncc1C(=O)Nc1nnc(C#CC2CC2)s1` [Compound 600] is 1.7-fold lower in IC50: 1 nM for the first, 0.6 nM for the second.

`Cc1nnc(Cn2cc(-c3cc(C(F)F)ccc3C)c(C(=O)Nc3ncc(C#CC4CC4)s3)cc2=O)o1` [Compound 116] and `COc1cnc(C(F)F)cc1-c1cc(-n2cc(C)c(C)cc2=O)ncc1C(=O)Nc1nnc(C#CC2CC2)s1` [Compound 476] cannot be ordered by IC50: under 0.25 nM for the first, under 0.25 nM for the second.

Going from `COc1cnc(C(F)F)cc1-c1cc(-n2ccc(C)cc2=O)ncc1C(=O)Nc1nnc([C@H]2C[C@@H]2C(F)F)s1` [Compound 623] to `COc1cnc(C(F)F)cc1-c1cc(-n2ccc(C)cc2=O)ncc1C(=O)Nc1nnc([C@H]2C[C@@H]2C(C)C)s1` (racemic) [Compound 586], the IC50 rises from under 0.25 nM to 1.2 nM. The first is the more potent here.

Going from `C#C[C@H]1CC1c1nnc(NC(=O)c2ccc(-c3nnc(C)o3)cc2-c2cc(C(F)F)ncc2OC)s1` (mixture of isomers) [Compound 373] to `C#C[C@H]1C[C@@H]1c1nnc(NC(=O)c2cnc(-n3cccc(C(F)(F)F)c3=O)cc2-c2cc(C(F)F)ncc2OC)s1` [Compound 575], the IC50 falls from 4.6 nM to 0.32 nM (14-fold). The second is the more potent here.

Going from `COc1cnc(C(F)F)cc1-c1cc(C#CCn2cc(C)cn2)ncc1C(=O)Nc1nnc(C#CC2CC2)s1` [Compound 599] to `COc1cnc(C(F)F)cc1-c1cc(C#CCN2C(=O)CCC2=O)ncc1C(=O)Nc1nnc(C#CC2CC2)s1` [Compound 561], the IC50 rises from 21 nM to over 100 nM.

Compared with `COc1cncc(-c2cc(-c3cc(C(F)F)ncc3OC)c(C(=O)Nc3nnc(C#CC4CC4)s3)cn2)c1` [Compound 525], `COc1cnc(C(F)F)cc1-c1cc(-n2ccc(N)cc2=O)ncc1C(=O)Nc1nnc(C#CC2CC2)s1` [Compound 488] is lower in IC50: 1.3 nM for the first, under 0.25 nM for the second.

Going from `C#C[C@H]1C[C@@H]1c1nnc(NC(=O)c2cnc(N3CCN(C)C4(CC4)C3=O)cc2-c2cc(C(F)F)ncc2OC)s1` [Compound 574] to `C#C[C@H]1C[C@@H]1c1nnc(NC(=O)c2cnc(-n3ccc(OC4CCN(C)C4)cc3=O)cc2-c2cc(C(F)F)ncc2OC)s1` (single isomer, unassigned) [Compound 626], the IC50 rises from 1.1 nM to 3.5 nM (3.2-fold).

First: COc1cnc(C(F)F)cc1-c1cc(-n2ccc(C)cc2=O)ncc1C(=O)Nc1nnc([C@H]2C[C@@H]2c2ccccn2)s1 (racemic) [Compound 592]
Second: COc1cnc(C(F)F)cc1-c1cc(-n2ccc(C)cc2=O)ncc1C(=O)Nc1nnc(C2CC3(CCC3)C2)s1 [Compound 566]
The IC50 of the first is 4.2-fold lower: 0.48 nM for the first, 2 nM for the second.

Going from `COc1cnc(C(F)F)cc1-c1cc(C#CC(C)(C)O)ncc1C(=O)Nc1nnc([C@H]2C[C@@H]2C)s1` (racemic) [Compound 619] to `CC#C[C@H]1CC1c1nnc(NC(=O)c2cnc(-n3cccc(F)c3=O)cc2-c2cc(C(F)F)ncc2OC)s1` (mixture of isomers) [Compound 638], the IC50 falls from 4.9 nM to under 0.25 nM. The second is the more potent here.

`COc1cnc(C(F)F)cc1-c1cc(N2CC3CC3CC2=O)ncc1C(=O)Nc1nnc(C#CC2CC2)s1` (racemic) [Compound 388] and `COc1cnc(C(F)F)cc1-c1cc(N2CCC(C(C)(C)C)CC2=O)ncc1C(=O)Nc1nnc(C#CC2CC2)s1` (racemic) [Compound 444] cannot be ordered by IC50: under 0.25 nM for the first, under 0.25 nM for the second.

First: COc1cnc(C(F)F)cc1-c1cc(-n2ccc(OC3CCN(C)CC3)cc2=O)ncc1C(=O)Nc1nnc(C#CC2CC2)s1 [Compound 611]
Second: COc1cnc(C(F)F)cc1-c1cc(-n2ccc(CO)cc2=O)ncc1C(=O)Nc1nnc(C#CC2CC2)s1 [Compound 490]
The IC50 of the first is higher: 1.2 nM for the first, under 0.25 nM for the second. The second is the more potent here.

Going from `COCc1nnc(NC(=O)c2cnc(-n3ccc(C)cc3=O)cc2-c2cc(C(F)F)ncc2OC)s1` [Compound 602] to `COc1cnc(C(F)F)cc1-c1cc(-n2ccc(C)cc2=O)ncc1C(=O)Nc1nnc(CC(C)(C)OC)s1` [Compound 568], the IC50 rises from 11 nM to 45 nM (4.1-fold).

`COc1cnc(C(F)F)cc1-c1cc(-n2ccc(C(N)=O)cc2=O)ncc1C(=O)Nc1nnc(C#CC2CC2)s1` [Compound 492] and `COc1cnc(C(F)F)cc1-c1cc(C#CCC2CCNC2=O)ncc1C(=O)Nc1nnc(C#CC2CC2)s1` (racemic) [Compound 570] cannot be ordered by IC50: under 0.25 nM for the first, under 0.25 nM for the second.

Going from `COc1cnc(C(F)F)cc1-c1cc(C#CC2CCN(C)CC2)ncc1C(=O)Nc1nnc(C#CC2CC2)s1` [Compound 555] to `COc1cnc(C(F)F)cc1-c1cc(C#CCN2C[C@@H](C)O[C@@H](C)C2)ncc1C(=O)Nc1nnc(C#CC2CC2)s1` [Compound 529], the IC50 falls from 1 nM to 0.59 nM (1.7-fold).

Compared with `Cn1ccc(C2C=C(c3cc(C(F)(F)F)ncc3Cl)C(C(=O)Nc3ncc(C#CC4CC4)s3)=CC2=O)n1` (stereo not shown) [Compound 479], `COc1cnc(C(F)F)cc1-c1cc(N2CCN(C)CC2=O)ccc1C(=O)Nc1ncc(C#CC2CC2)s1` [Compound 217] is 3.9-fold lower in IC50: 7.4 nM for the first, 1.9 nM for the second.
